Laboratory results taken from patent US8889423B2, “Method for analysis of compound-binding ability of protein” (Eisai R & D Management Co., Ltd., priority 2005, dated 2014).

Columns and labels:
[1] = test system: OS9 (amplified in osteosarcoma isoform 1-4 precursor); experiment: Affinity chromatography on immobilized compound with urea step elution, LC/MS peak intensity ratio; assay type: binding, Human; conditions: for peak intensity ratio (peak area of the labeled protein/peak area of the non-labeled protein): HCT116 extract
Description: (§1) About 10 mg of the compound represented by formula (1):
(§2) [drawing 1] was dissolved in 4 mL of tetrahydrofuran (THF) and 4 mL of methanol (MeOH), and 4 mL of water was added thereto.
(§3) 6 mL of the resultant solution was diluted with 18 mL of THF/MeOH/Water=1/1/1 (v/v/v), and was added to 25 mL of Affi-gel 10 (produced by BioRad, Cat No. 153-6099), which had been washed with THF/MeOH/Water=1/1/1 (v/v/v) beforehand.
(§4) To the resultant substance, 100 μL of triethylamine (produced by Tokyo Chemical Industry Co., Ltd., Cat No. T0424) was added thereto and incubated at room temperature for 2 hours. Then, 500 μL of 2-aminoethanol (produced by Tokyo Chemical Industry Co., Ltd., Cat No. A0297) was added thereto and incubated at room temperature for 2 hours. The resultant gel was fully washed with THF/MeOH/Water=1/1/1 (v/v/v), and was stored at 4° C. after replacement with a methanol solution. The resultant gel was set to be used as an affinity gel. By this reaction, the compound represented by formula (1) was bound at a ratio of about 0.2 mg for 1 mL of gel. A column was filled with about 0.9 ml of the produced affinity gel. Thus, an affinity chromatography column was produced.
(§5) Human colon glandular cancer cell line HCT116 (ATCC) was cultured. Used as a medium was RPMI-1640 (Sigma, R-7130) containing 10% fetal calf serum (MOREGATE, BATCH 32300102), 100 U/ml of penicillin G; and 100 μg/ml of streptomycin (Invitrogen, 15140-122). As for the RPMI-1640 medium, a powder medium which contains none of L-glutamine, L-lysine, L-methionine, L-leucine, and sodium hydrogen carbonate was selected. Then, components absent in the medium were added. The absent components were added as follows. L-glutamine (produced by Sigma, G-8540), L-lysine (produced by Sigma, L-9037), L-methionine (produced by Sigma, M-5308), and sodium hydrogen carbonate (Wako Pure Chemical Industries, Ltd., 191-01305) were added in 0.3 g/L, 0.04 g/L, 0.015 g/L, and 2 g/L, respectively; and then naturally-occurring L-leucine and L-leucine labeled with a stable isotope ^13C (six) (Cambridge Isotope Laboratories, CLM-2262) were separately added in 0.05 g/L. Each medium thus prepared was used to culture cells in 5% CO2 at 37° C. The cells obtained by such culturing were used in the following tests as cells cultured in a naturally-occurring medium and cells cultured in a stable isotope medium, respectively.
(§6) Cells cultured in the naturally-occurring medium were provided in an amount corresponding to ten 15-cm diameter plates. Cells cultured in the stable isotope medium were provided in an amount corresponding to ten 15-cm diameter plates. The cells were collected. The cells were solubulized with about 2 ml of M-PER (PIERCE, 78501) per 15-cm diameter plate. Insoluble fractions were removed by centrifugation to prepare soluble fractions. The soluble fractions thus obtained were set to be used as a protein extract liquid metabolically labeled with a stable isotope and a protein extract liquid not metabolically labeled with a stable isotope, respectively. To these protein extract liquids (about 20 ml each), a quadruple amount of PBS was added (final amount: about 100 ml each).
Next, about 0.9 ml of affinity gel was put into an open column, and a diluted protein extract liquid metabolically labeled with a stable isotope was added to the open column from above and was naturally dropped. Then, 10 ml of PBS containing 1 M NaCl was flown to this column. […]

[2] = target: T1, MTAP (5′-methylthioadenosine phosphorylase) (Homo sapiens, UniProt Q13126); experiment: as above; assay type: binding; conditions: for peak intensity ratio (peak area of the labeled protein/peak area of the non-labeled protein): HCT116 extract
T1 construct: Insoluble fractions were removed by centrifugation to prepare soluble fractions; endogenous in cells; host or cells: HCT116
T1 sequence (Q13126 1-283): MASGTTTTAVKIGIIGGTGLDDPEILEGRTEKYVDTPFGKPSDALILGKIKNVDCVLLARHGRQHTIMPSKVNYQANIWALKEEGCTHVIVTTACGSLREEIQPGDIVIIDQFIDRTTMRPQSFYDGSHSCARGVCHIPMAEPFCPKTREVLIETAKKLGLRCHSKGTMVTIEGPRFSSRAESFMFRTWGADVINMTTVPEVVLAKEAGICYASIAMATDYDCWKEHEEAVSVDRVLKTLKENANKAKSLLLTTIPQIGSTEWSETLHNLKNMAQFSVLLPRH
Description: as §1, §2, §3, §4, §5, §6
(§7) Next, about 0.9 ml of affinity gel was put into an open column, and a diluted protein extract liquid metabolically labeled with a stable isotope was added to the open column from above and was naturally dropped. Then, 10 ml of PBS containing 1 M NaCl was flown to this column. Next, 7 ml of PBS containing 1 M urea and 0.01% CHAPS, 7 ml of PBS containing 2 M urea and 0.01% CHAPS, 7 ml of PBS containing 4 M urea and 0.01% CHAPS, and 7 ml of PBS containing 8 M urea and 0.01% CHAPS were sequentially flown, and the eluted fractions were collected (4 fractions in total).
(§8) In parallel with the above operation, a diluted protein extract liquid not metabolically labeled with a stable isotope was added to 0.9 ml of affinity gel from above and was naturally dropped. Then, 10 ml of PBS containing 1 M NaCl was flown to this column. […]

[3] = target: T2, PCMT1 (protein-L-isoaspartate (D-aspartate) O-methyltransferase) (Homo sapiens, UniProt P22061); experiment: as above; assay type: binding; conditions: for peak intensity ratio (peak area of the labeled protein/peak area of the non-labeled protein): HCT116 extract
T2 construct: Insoluble fractions were removed by centrifugation to prepare soluble fractions; endogenous in cells; host or cells: HCT116
T2 sequence (P22061 whole entry): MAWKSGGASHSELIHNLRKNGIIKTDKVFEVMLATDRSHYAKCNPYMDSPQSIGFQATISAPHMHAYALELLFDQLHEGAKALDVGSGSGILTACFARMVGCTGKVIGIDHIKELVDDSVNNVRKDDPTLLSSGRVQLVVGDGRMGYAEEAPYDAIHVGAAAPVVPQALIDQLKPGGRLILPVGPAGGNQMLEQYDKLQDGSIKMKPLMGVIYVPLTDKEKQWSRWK
Description: as §1, §2, §3, §4, §5, §6, §7, §8

[4] = target: T3, AHCY (S-adenosylhomocysteine hydrolase) (Homo sapiens, UniProt P23526); experiment: as above; assay type: binding; conditions: for peak intensity ratio (peak area of the labeled protein/peak area of the non-labeled protein): HCT116 extract
T3 construct: Insoluble fractions were removed by centrifugation to prepare soluble fractions; endogenous in cells; host or cells: HCT116
T3 sequence (P23526 2-432 limits assumed): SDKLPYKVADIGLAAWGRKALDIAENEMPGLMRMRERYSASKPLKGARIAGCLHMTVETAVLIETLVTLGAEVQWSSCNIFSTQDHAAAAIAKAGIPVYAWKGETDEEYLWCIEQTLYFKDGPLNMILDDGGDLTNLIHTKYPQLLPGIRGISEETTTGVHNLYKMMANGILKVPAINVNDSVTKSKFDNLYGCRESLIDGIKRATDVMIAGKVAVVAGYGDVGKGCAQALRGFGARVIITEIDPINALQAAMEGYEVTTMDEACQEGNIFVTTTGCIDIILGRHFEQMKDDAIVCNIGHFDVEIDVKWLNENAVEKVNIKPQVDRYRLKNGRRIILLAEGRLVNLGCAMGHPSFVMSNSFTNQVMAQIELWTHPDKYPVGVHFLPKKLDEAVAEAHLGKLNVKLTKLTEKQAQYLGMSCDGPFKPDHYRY
Description: as §1, §2, §3, §4, §5, §6, §7, §8

[5] = target: T4, SPRY4 (sprouty homolog 4) (Homo sapiens, UniProt Q9C004); experiment: as above; assay type: binding; conditions: for peak intensity ratio (peak area of the labeled protein/peak area of the non-labeled protein): HCT116 extract
T4 construct: Insoluble fractions were removed by centrifugation to prepare soluble fractions; endogenous in cells; host or cells: HCT116
T4 sequence (Q9C004 1-299): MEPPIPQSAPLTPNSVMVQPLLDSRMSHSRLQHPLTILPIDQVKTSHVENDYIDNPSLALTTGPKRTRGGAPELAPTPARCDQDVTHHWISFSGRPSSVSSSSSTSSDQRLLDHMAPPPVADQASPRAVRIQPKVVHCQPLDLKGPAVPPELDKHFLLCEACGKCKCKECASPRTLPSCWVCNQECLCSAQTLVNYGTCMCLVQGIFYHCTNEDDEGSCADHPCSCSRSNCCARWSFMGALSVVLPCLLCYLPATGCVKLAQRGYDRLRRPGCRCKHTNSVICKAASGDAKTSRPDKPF
Description: as §1, §2, §3, §4, §5, §6, §7, §8

[6] = test system: proteins of HCT116 cell extract (AHCY, PCMT1, OS9, SPRY4); experiment: Ranking of binding ability of proteins to the immobilized compound; parameters: species or system Human; conditions: from highest-peak fraction and from ratios in the 8 M urea fraction
Description: as §7
In parallel with the above operation, a diluted protein extract liquid not metabolically labeled with a stable isotope was added to 0.9 ml of affinity gel from above and was naturally dropped. Then, 10 ml of PBS containing 1 M NaCl was flown to this column. Next, 12 ml of PBS containing 8 M urea and 0.01% CHAPS was flown, and the eluted fractions were collected to be used as an internal standard fraction.
3 ml of the internal standard fraction was added to each of the four fractionated samples and mixed together. […]
Quantitation was to be performed at the peak of the peptides containing leucine. […] Peaks forming a pair were found, and the peak intensity ratio thereof was automatically calculated. In this manner, proteins were identified and the peak intensity ratio was calculated using the constructed software. […]

## NCc1ccc(S(=O)(=O)Nc2cccc3c(Cl)c[nH]c23)cc1 [formula (1)]
[1]; 1M Urea fraction
  peak intensity ratio (peak area of the labeled protein/peak area of the non-labeled protein): 1.24
[1]; 2M Urea fraction
  peak intensity ratio (peak area of the labeled protein/peak area of the non-labeled protein): 3.57
[1]; 4M Urea fraction
  peak intensity ratio (peak area of the labeled protein/peak area of the non-labeled protein): 1.62
[1]; 8M Urea fraction
  peak intensity ratio (peak area of the labeled protein/peak area of the non-labeled protein): 0.73
[1]; elution with 1, 2, 4, 8 M urea
  fraction with the highest peak: 2 M urea fraction
[2]; 1M Urea fraction
  peak intensity ratio (peak area of the labeled protein/peak area of the non-labeled protein): 0.77
[2]; 2M Urea fraction
  peak intensity ratio (peak area of the labeled protein/peak area of the non-labeled protein): 0.78
[2]; 4M Urea fraction
  peak intensity ratio (peak area of the labeled protein/peak area of the non-labeled protein): 0.71
[2]; 8M Urea fraction
  peak intensity ratio (peak area of the labeled protein/peak area of the non-labeled protein): 0.88
[2]; all the four urea fractions
  peak intensity ratio: about 0.8
[3]; 1M Urea fraction
  peak intensity ratio (peak area of the labeled protein/peak area of the non-labeled protein): 1.14
[3]; 2M Urea fraction
  peak intensity ratio (peak area of the labeled protein/peak area of the non-labeled protein): 1.57
[3]; 4M Urea fraction
  peak intensity ratio (peak area of the labeled protein/peak area of the non-labeled protein): 2.52
[3]; 8M Urea fraction
  peak intensity ratio (peak area of the labeled protein/peak area of the non-labeled protein): 1.02
[3]; elution with 1, 2, 4, 8 M urea
  fraction with the highest peak: 4 M urea fraction
[4]; 1M Urea fraction
  peak intensity ratio (peak area of the labeled protein/peak area of the non-labeled protein): 0.63
[4]; 2M Urea fraction
  peak intensity ratio (peak area of the labeled protein/peak area of the non-labeled protein): 0.99
[4]; 4M Urea fraction
  peak intensity ratio (peak area of the labeled protein/peak area of the non-labeled protein): 1.88
[4]; 8M Urea fraction
  peak intensity ratio (peak area of the labeled protein/peak area of the non-labeled protein): 3.27
[4]; elution with 1, 2, 4, 8 M urea
  fraction with the highest peak: 8 M urea fraction
[5]; 1M Urea fraction
  peak intensity ratio (peak area of the labeled protein/peak area of the non-labeled protein): 3.70
[5]; 2M Urea fraction
  peak intensity ratio (peak area of the labeled protein/peak area of the non-labeled protein): 1.17
[5]; 4M Urea fraction
  peak intensity ratio (peak area of the labeled protein/peak area of the non-labeled protein): 0.83
[5]; 8M Urea fraction
  peak intensity ratio (peak area of the labeled protein/peak area of the non-labeled protein): 0.67
[5]; elution with 1, 2, 4, 8 M urea
  fraction with the highest peak: 1 M urea fraction
[6]
  binding ability of the proteins to the compound, ordered from highest to lowest: AHCY, PCMT1, OS9 and SPRY4
